Results: the CheMixHub viscosity set

Experiment: xn = mol fraction of the nth substance listed

CC(C)CCO + OCc1ccccc1
viscosity [mPa·s], 101 kPa
Details	x1 = 0.0955	x1 = 0.1908	x1 = 0.2853	x1 = 0.3812	x1 = 0.4814	x1 = 0.5847	x1 = 0.6842	x1 = 0.7879	x1 = 0.8921
293.15 K	6.28	6.27	6.26	6.18	6.07	5.86	5.58	5.23	4.86
298.15 K	5.53	5.51	5.49	5.42	5.31	5.11	4.85	4.53	4.19
303.15 K	4.64	4.63	4.62	4.58	4.49	4.37	4.19	3.94	3.64
308.15 K	3.96	3.92	3.89	3.86	3.81	3.7	3.53	3.28	3
313.15 K	3.48	3.44	3.39	3.36	3.31	3.22	3.1	2.95	2.71
318.15 K	3.05	3	2.95	2.89	2.83	2.74	2.63	2.49	2.3

CC(CC(C)(C)C)CP(=O)(O)CC(C)CC(C)(C)C (centres undefined) + c1ccccc1
298.15 K, 101 kPa
Details	viscosity [mPa·s]
x1 = 0.0058	0.631
x1 = 0.0104	0.661
x1 = 0.0122	0.678
x2 = 0.1178	93.82
x2 = 0.2304	71.32
x2 = 0.3732	46.06
x2 = 0.5517	20.77
x2 = 0.6956	8.438
x2 = 0.784	4.43
x2 = 0.7966	4.061
x2 = 0.8411	2.952
x2 = 0.8809	2.165
x2 = 0.8838	2.106
x2 = 0.9333	1.332
x2 = 0.9375	1.29
x2 = 0.9656	0.94
x2 = 0.9738	0.83

CCOCCO + c1ccccc1
viscosity [mPa·s], 101 kPa
Details	298.15 K	308.15 K
x1 = 0.0585	0.632	0.548
x1 = 0.1533	0.686	0.587
x1 = 0.2518	0.752	0.635
x1 = 0.3637	0.841	0.7
x1 = 0.4521	0.923	0.76
x1 = 0.5048	0.979	0.8
x1 = 0.5525	1.034	0.839
x1 = 0.6521	1.164	0.931
x1 = 0.7508	1.317	1.039
x1 = 0.8521	1.505	1.17
x1 = 0.9547	1.734	1.328

CNC(C)=O + c1ccccc1
308.15 K, 101.33 kPa
Details	viscosity [mPa·s]
x1 = 0.0294	0.4955
x1 = 0.226	0.8005
x1 = 0.3331	1.021
x1 = 0.437	1.255
x1 = 0.5349	1.51
x1 = 0.6329	1.78
x1 = 0.7301	2.099
x1 = 0.823	2.452
x1 = 0.9747	3.132

N#C[C-](C#N)C#N.OCCC[n+]1ccccc1 + c1ccsc1
101 kPa
Details	viscosity [mPa·s]
298.15 K, x1 = 0.5955	36.55
313.15 K, x1 = 0.9377	39.55
